Laboratory results from ChEMBL document CHEMBL1201862, “PubChem BioAssay data set” (2004).
Active and inactive are the calls of the source.

Assays:
[1] = inhibitors acting on PAX2 in cells – cell-based, plate reader, dry powder samples, selectivity assay for PAX8 inhibitor project, dose response (AID 743048); assay type: functional;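 note: HEK293 cells carrying a WT1 promoter luciferase reporter driven by expressed Pax2; potency is for inhibition of Pax2 driven reporter signal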
Paired box protein Pax-8 = Paired box protein Pax-8 (Homo sapiens, UniProt Q06710); test: PAX8 transcriptional activity inhibition in RMG-I – RMG-I cells, luciferase, cherry-pick, dose response (AID 687027); assay type: functional, cell-based;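 note: luciferase reporter driven by Pax8 target thyroperoxidase promoter measured by SteadyGlo luminescence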
[2] = PAX5 cellular inhibition readout – cell-based, plate reader, dry powder samples, selectivity assay for PAX8 inhibitor project, dose response (AID 743047); assay type: functional;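 note: HEK293 cells carrying a Pax5 driven CD19 promoter luciferase reporter; potency of inhibitors that lower reporter luminescence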
[3] = COV434 cell viability loss – plate reader, dry powder, SA7, cytotoxicity control for PAX8 inhibitor project, dose response (AID 743145); assay type: functional, cell-based
[4] = PAX8-dependent cell viability loss – plate reader, dry powder, dose response (AID 743049); assay type: functional, cell-based
[5] = OVCAR-3 cell viability loss – plate reader, dry powder samples, PAX8 inhibitor project, dose response (AID 743044); assay type: functional, cell-based
[6] = COV362 cell viability loss – plate reader, dry powder, SA12, cytotoxicity control for PAX8 inhibitor project, dose response (AID 743144); assay type: functional, cell-based
[7] = OV-90 cell viability loss – plate reader, dry powder, SA8, PAX8 inhibitor project, dose response (AID 743149); assay type: functional, cell-based
[8] = OVCAR8 cell viability loss – plate reader, dry powder samples, PAX8 project, dose response (AID 743197); assay type: functional, cell-based; settings: OVCAR-8
[9] = OVCAR4 cell viability loss – plate reader, dry powder, SA11, cytotoxicity control for PAX8 inhibitor project, dose response (AID 743150); assay type: functional, cell-based; settings: OVCAR-4
[10] = growth inhibition of PfATP4-mutant resistant parasites – NITD609-resistant line, SYBR Green, dry powder, dose response (AID 1159571); assay type: functional, cell-based;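 note: parasites synchronized at ring stage by sorbitol before testing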
[11] = Dd2 malaria parasite growth inhibition potency – SYBR Green, dry powder samples, dose response (AID 1159566); assay type: functional, cell-based;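 note: potency for growth inhibition with lower SYBR green DNA signal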
[12] = growth inhibition of yeast DHODH-expressing 3D7 parasites – SYBR Green, dry powder samples, dose response (AID 1159570); assay type: functional, cell-based;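 note: parasite growth measured after 72 hours of compound exposure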
[13] = toxicity to human HepG2 hepatoma cells – cell-based, plate reader, dry powder samples, cytotoxicity control, dose response (AID 1159569); assay type: functional;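 note: inhibitor potency with signal falling toward the positive control level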
[14] = P. falciparum Dd2 growth inhibitors, dose response, SYBR Green, cherry-picked samples (AID 1159567); assay type: functional, cell-based
Coagulation factor XII = biological target: T1, Coagulation factor XII (Homo sapiens, UniProt P00748); assay type: functional;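 note: activated factor XIIa alpha cleaving a fluorogenic AMC peptide substrate; inhibitor potency from loss of enzyme activity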
T1 sequence (P00748 whole entry): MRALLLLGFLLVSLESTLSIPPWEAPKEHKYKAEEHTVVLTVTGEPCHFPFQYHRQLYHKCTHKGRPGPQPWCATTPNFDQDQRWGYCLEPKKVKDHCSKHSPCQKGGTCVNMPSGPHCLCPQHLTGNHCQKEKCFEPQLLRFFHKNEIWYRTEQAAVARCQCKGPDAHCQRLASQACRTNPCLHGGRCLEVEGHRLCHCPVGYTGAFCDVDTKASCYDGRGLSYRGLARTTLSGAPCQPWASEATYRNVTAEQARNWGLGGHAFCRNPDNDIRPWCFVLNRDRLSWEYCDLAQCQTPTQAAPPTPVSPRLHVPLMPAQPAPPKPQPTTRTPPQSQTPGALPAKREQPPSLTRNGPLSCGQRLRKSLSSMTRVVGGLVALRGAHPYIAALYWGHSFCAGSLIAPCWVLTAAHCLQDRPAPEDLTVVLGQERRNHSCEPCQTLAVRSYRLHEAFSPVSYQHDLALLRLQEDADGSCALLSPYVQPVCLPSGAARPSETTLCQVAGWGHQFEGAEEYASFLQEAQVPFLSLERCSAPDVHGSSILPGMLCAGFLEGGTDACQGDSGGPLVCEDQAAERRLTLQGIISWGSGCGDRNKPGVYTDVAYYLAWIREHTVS

[15] = biological target: 1-phosphatidylinositol 4,5-bisphosphate phosphodiesterase gamma-1 (Homo sapiens, UniProt P19174); test: Counterscreen for inhibitors of phospholipase C isozymes (PLC-B3): Fluorescence-based biochemical high throughput dose response assay to identify inhibitors of phospholipase C isozymes (PLC-gamma1).
[16] = biological target: 1-phosphatidylinositol 4,5-bisphosphate phosphodiesterase beta-3 (Homo sapiens, UniProt Q01970); test: Fluorescence-based biochemical high throughput dose response assay to identify inhibitors of phospholipase C isozymes (PLC-B3).
[17] = HeLa cell viability loss – plate reader, dry powder, cytotoxicity control, dose response (AID 651946); assay type: functional, cell-based
[18] = inhibitors of non-replicating M. tuberculosis, dose response, luciferase, dry powder (AID 651619); assay type: functional; settings: Mycobacterium tuberculosis
[19] = HepG2 hepatoma cell viability loss – plate reader, dry powder, cytotoxicity control, dose response (AID 651947); assay type: functional, cell-based
[20] = inhibitors of non-replicating M. tuberculosis, dose response, luciferase, dry powder (AID 651620); assay type: functional; settings: Mycobacterium tuberculosis
[21] = growth inhibition of replicating M. tuberculosis, dose response, counter-screen, dry powder, IC90 (AID 651617); assay type: functional; settings: Mycobacterium tuberculosis
[22] = biological target: C-C chemokine receptor type 6 (Homo sapiens, UniProt P51684); test: SAR analysis of small molecule antagonists of the CXCR6 receptor using a CCR6 receptor luminescent beta-arrestin counterscreen.; assay type: functional
[23] = biological target: C-X-C chemokine receptor type 4 (Homo sapiens, UniProt P61073); test: SAR analysis of small molecule antagonists of the CXCR6 receptor using a CXCR4 receptor luminescent beta-arrestin counterscreen.; assay type: functional
[24] = Late stage assay provider results from the probe development effort to identify inhibitors of the Plasmodium falciparum M18 Aspartyl Aminopeptidase (M18AAP): radiolabel-based cell-based dose response assay to identify compounds that inhibit P. falciparum growth in RBCs, Set 2..; assay type: functional
[25] = suppression of HIF-dependent reporter luminescence – cell-based, dry powder samples, 2158-07, ARNT-TACC3 inhibitor project, dose response (AID 720561); assay type: functional
[26] = Luminescence-based cell-based high throughput dose response assay to identify activators of the DAF-12 from the parasite S. stercoralis (ssDAF-12).; assay type: functional
[27] = biological target: T2, Oxysterols receptor LXR-beta (Homo sapiens, UniProt P55055); test: LXR agonists, Gal4 luciferase reporter, dose response, counter-screen for ssDAF-12 agonist project, cell-based, luminescence, HEK293, S. stercoralis campaign (AID 720737); assay type: functional; settings: read-out: IC50 (the source's name)
[28] = biological target: T2, Oxysterols receptor LXR-beta; assay type: functional, cell-based
[29] = viability loss in HEK293T cells – cell-based, CellTiter-Glo luminescence, dry powder, set 6, cytotoxicity control, dose response (AID 651949); assay type: functional; settings: HEK293
[30] = biological target: NAD-dependent protein deacylase sirtuin-5, mitochondrial (Homo sapiens, UniProt Q9NXA8); test: blockers of sirtuin-5 peptide desuccinylation – biochemical, fluorescence imaging, cherry-pick, set 6, dose response (AID 720597)
HEK293 = test: viability loss in HEK293T cells – cell-based, ATP luminescence, cherry-pick samples, cytotoxicity control, dose response (AID 687005); assay type: functional; settings: Homo sapiens;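 note: cells exposed to compound for 48 hours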
[31] = HEK293 Cytotoxicity Assay Measured in Cell-Based System Using Plate Reader - 7071-01_Inhibitor_Dose_CherryPick_Activity_Set2.; assay type: functional
[32] = viability loss in HepG2 liver cells – cell-based, ATP luminescence, cherry-pick, set 6, cytotoxicity control, dose response (AID 1053125); assay type: functional
Caspase-6 = biological target: T3, Caspase-6 (Homo sapiens, UniProt P55212); test: inhibition of CASP6 peptide cleavage – biochemical, VEID-R110 fluorescence, cherry-pick, dose response (AID 720632)
T3 sequence (P55212 whole entry): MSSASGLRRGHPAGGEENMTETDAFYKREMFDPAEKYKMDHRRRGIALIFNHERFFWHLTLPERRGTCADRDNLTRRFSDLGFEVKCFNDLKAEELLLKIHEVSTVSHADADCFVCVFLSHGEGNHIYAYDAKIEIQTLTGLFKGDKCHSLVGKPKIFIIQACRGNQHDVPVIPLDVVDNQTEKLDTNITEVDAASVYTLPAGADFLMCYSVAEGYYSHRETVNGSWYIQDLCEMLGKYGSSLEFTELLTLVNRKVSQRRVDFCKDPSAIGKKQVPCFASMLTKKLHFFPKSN

Ephrin type-A receptor 4 = Ephrin type-A receptor 4 (Mus musculus, UniProt Q03137); test: EphA4 ligand-binding antagonists – biochemical, colorimetric, mouse EphA4, primary screen (AID 689); assay type: functional
[33] = biological target: Eukaryotic translation initiation factor 4E (Mus musculus, UniProt P63073); test: blockers of eIF4G binding by eIF4E – biochemical, TR-FRET, dose response (AID 855); assay type: functional;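 note: potency for disrupting eIF4E binding to eIF4GI seen as loss of FRET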
Caspase-9 = Caspase-9 (Homo sapiens, UniProt P55211); test: inhibitors of purified CASP9 protease – biochemical, fluorescence, plate reader, cherry-picked samples, selectivity assay for caspase-6 inhibitor project, dose response (AID 743293)
Caspase-7 = Caspase-7 (Homo sapiens, UniProt P55210); test: caspase-7 enzyme inhibition, selectivity check – biochemical, DEVD-R110 fluorescence, cherry-pick, selectivity assay for caspase-6 inhibitor project, dose response (AID 743295); assay type: functional
[34] = biological target: Induced myeloid leukemia cell differentiation protein Mcl-1 (Homo sapiens, UniProt Q07820); assay type: functional
Caspase-8 = Caspase-8 (Homo sapiens, UniProt Q14790); test: inhibitors of purified CASP8 protease – biochemical, Z-IETD-R110 fluorescence, cherry-picked samples, selectivity assay for caspase-6 inhibitor project, dose response (AID 743294)
[35] = YAP1 overexpression rescue of CTGF inhibition – DLD1 cells, RT-qPCR, cherry-pick, mechanism study for YAP1 pathway inhibitor project, dose response (AID 1053127); assay type: functional, cell-based; settings: DLD-1
[36] = CTGF mRNA reduction in DLD1 cells – cell-based, DLD1 colon cancer, RT-qPCR, cherry-pick, dose response (AID 1053122); assay type: functional; settings: Cancer cell lines

T2 sequence (P55055 whole entry, the tested form may be a part): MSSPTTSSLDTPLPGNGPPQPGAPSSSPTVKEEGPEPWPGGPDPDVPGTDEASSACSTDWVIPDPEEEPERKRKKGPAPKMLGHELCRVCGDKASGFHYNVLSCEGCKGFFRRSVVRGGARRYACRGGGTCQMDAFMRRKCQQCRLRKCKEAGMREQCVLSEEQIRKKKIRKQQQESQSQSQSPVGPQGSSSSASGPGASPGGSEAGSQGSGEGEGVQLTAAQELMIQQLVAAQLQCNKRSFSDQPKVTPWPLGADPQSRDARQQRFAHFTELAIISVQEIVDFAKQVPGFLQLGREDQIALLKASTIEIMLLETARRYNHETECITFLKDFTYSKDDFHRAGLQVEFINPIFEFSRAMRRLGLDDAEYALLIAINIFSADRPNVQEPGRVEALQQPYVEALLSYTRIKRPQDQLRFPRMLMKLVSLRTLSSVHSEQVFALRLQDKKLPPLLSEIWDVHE
Sequence of Eukaryotic translation initiation factor 4E (P63073 whole entry): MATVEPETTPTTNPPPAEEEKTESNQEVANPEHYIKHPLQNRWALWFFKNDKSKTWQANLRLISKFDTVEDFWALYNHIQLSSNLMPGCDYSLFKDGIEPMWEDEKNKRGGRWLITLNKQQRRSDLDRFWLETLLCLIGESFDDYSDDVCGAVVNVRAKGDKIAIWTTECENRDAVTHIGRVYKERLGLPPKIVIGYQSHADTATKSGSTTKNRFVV
Sequence of C-X-C chemokine receptor type 4 (P61073 whole entry): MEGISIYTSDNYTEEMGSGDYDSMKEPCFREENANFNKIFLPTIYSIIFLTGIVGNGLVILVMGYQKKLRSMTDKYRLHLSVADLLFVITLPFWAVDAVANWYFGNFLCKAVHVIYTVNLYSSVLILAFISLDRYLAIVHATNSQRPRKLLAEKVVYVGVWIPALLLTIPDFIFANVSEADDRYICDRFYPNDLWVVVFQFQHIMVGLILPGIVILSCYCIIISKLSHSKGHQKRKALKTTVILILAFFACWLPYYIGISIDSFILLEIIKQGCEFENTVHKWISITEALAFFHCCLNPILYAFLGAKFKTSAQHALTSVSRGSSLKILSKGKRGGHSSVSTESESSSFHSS
Sequence of Caspase-9 (P55211 1-315 limits assumed): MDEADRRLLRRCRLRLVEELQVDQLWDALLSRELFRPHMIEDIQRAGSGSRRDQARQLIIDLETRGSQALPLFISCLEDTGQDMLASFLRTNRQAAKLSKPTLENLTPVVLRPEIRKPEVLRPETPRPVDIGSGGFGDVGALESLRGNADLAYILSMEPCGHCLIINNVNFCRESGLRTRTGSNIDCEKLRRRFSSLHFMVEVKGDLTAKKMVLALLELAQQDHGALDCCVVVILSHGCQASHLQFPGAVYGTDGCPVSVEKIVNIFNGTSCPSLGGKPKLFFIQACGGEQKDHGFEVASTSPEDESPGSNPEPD
Sequence of Caspase-9 (P55211 331-416 limits assumed): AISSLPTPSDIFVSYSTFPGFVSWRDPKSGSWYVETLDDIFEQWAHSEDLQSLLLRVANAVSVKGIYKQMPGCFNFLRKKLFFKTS
Sequence of Caspase-7 (P55210 24-198 limits assumed): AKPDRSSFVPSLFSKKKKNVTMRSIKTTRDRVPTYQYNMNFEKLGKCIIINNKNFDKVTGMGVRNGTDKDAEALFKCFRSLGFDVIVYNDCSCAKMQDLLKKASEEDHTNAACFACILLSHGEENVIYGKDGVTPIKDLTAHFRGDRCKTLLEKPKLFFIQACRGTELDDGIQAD
Sequence of Caspase-7 (P55210 207-303 limits assumed): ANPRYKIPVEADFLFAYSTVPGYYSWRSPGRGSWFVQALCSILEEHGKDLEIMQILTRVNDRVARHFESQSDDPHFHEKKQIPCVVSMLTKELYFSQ
Sequence of Induced myeloid leukemia cell differentiation protein Mcl-1 (Q07820 whole entry): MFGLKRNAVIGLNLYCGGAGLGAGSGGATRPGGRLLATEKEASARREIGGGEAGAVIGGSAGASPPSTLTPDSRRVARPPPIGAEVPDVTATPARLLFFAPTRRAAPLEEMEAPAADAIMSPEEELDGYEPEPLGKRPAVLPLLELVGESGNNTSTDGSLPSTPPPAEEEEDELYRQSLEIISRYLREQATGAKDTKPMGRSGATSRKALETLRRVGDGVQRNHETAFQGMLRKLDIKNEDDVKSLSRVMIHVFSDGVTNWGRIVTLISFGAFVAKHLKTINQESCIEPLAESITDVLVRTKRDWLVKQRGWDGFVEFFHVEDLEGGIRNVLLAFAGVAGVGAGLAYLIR
Sequence of Ephrin type-A receptor 4 (Q03137 whole entry): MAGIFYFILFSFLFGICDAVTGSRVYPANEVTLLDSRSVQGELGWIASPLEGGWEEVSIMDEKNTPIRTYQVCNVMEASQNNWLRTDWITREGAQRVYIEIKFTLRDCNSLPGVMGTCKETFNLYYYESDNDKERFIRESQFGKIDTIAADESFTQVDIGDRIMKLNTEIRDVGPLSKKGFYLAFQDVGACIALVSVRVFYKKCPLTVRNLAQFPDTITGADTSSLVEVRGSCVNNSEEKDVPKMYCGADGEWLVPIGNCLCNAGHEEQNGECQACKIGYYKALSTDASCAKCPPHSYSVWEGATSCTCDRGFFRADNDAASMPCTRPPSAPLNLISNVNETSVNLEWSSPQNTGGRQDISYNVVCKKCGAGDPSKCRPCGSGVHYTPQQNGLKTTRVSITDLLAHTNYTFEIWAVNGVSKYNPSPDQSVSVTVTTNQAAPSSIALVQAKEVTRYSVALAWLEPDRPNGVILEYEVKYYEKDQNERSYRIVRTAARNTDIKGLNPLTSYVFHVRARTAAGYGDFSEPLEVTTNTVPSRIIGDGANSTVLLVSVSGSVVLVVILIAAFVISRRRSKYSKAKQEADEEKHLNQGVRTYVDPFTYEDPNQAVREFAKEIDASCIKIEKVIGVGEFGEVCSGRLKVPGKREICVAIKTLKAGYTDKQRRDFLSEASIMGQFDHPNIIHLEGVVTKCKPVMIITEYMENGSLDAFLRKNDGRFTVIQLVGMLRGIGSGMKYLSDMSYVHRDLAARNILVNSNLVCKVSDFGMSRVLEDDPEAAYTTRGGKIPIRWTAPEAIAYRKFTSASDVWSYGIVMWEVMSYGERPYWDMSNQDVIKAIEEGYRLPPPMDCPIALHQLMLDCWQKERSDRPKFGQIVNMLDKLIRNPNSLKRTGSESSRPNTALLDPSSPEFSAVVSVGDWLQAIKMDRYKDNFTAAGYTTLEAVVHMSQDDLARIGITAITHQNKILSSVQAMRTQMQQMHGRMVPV
Sequence of 1-phosphatidylinositol 4,5-bisphosphate phosphodiesterase beta-3 (Q01970 whole entry): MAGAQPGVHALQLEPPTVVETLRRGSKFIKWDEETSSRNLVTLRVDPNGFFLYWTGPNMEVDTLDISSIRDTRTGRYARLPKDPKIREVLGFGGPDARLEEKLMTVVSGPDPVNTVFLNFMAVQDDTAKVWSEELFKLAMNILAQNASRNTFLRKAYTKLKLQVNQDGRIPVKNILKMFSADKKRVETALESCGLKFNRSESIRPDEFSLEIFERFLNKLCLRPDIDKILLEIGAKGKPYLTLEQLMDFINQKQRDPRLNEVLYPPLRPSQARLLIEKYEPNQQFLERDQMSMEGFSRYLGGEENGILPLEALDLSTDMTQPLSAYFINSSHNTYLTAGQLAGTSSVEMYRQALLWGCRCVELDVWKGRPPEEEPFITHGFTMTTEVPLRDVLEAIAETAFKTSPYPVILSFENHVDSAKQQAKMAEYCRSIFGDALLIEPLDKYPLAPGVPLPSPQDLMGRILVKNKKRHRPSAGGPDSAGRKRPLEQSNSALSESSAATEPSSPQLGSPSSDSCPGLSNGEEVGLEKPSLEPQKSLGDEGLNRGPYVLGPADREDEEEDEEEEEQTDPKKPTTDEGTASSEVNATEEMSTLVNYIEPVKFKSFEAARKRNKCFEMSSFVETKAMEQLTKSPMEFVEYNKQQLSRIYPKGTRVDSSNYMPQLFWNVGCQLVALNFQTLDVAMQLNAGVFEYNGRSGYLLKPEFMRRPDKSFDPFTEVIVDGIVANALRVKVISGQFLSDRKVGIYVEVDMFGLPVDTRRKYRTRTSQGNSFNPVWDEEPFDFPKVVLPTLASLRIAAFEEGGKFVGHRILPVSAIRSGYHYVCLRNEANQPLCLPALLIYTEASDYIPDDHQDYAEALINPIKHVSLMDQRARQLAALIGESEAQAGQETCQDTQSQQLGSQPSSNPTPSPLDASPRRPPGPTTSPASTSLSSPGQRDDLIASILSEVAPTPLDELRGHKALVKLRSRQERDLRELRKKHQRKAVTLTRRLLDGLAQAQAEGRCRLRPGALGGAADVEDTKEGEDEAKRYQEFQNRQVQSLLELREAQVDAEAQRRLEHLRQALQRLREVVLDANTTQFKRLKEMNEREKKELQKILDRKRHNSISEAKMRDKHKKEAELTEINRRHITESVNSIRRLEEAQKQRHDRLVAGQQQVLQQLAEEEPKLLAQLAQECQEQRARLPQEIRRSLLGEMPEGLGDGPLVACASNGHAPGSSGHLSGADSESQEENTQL
Sequence of C-C chemokine receptor type 6 (P51684 whole entry): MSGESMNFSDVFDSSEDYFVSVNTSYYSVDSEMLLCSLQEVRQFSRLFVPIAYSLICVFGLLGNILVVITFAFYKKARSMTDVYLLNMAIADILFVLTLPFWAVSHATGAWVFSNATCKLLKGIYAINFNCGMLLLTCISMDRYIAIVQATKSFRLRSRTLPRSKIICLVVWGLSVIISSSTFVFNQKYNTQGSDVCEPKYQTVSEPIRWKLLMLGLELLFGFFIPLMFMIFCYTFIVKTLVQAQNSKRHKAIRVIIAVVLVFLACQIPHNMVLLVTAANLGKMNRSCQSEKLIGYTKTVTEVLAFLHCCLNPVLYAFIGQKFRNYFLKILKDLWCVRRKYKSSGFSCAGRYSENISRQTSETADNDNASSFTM
Sequence of Caspase-8 (Q14790 217-374 limits assumed): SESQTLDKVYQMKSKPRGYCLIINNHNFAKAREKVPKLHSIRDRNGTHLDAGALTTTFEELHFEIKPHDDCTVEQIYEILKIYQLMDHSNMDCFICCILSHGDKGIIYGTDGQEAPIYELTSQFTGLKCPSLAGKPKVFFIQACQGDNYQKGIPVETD
Sequence of Caspase-8 (Q14790 385-479 limits assumed): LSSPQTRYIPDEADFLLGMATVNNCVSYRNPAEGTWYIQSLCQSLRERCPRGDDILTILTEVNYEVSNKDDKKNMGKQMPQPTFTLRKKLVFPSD

## C[C@@H]1CN([C@@H](C)CO)C(=O)Cc2cc(NS(=O)(=O)c3ccccc3)ccc2O[C@H]1CN(C)Cc1ccc(C(F)(F)F)cc1
[1]
  AC50: 17 µM (active)
Paired box protein Pax-8
  AC50: 6.03 µM (active)
[2]
  AC50: 18.8 µM (active)
[3]
  AC50: 32.6 µM (active)
[4]
  AC50: 11.1 µM (active)
[5]
  AC50: 23.4 µM (active)
[6]
  AC50: 31.6 µM (active)
[7]
  AC50: 28.5 µM (active)
[8]
  AC50: 23.9 µM (active)
[9]
  AC50: 45.6 µM (active)

## CO[C@@H]1CN(C)C(=O)c2cc(NC(=O)Nc3ccc(C(F)(F)F)cc3)ccc2OC[C@H](C)NC[C@H]1C
[10]
  AC50: 3.24 µM (active)
[11]
  AC50: 2.28 µM (active)
[12]
  AC50: 1.61 µM (active)
[13]
  AC50: 19.3 µM (active)
[14]
  AC50: 2.01 µM (active)

## CS(=O)(=O)c1nc(-c2ccc(Br)cc2)n[nH]1
Coagulation factor XII
  IC50: > 50 µM (inactive)
[15]
  IC50: 50.8 µM (inactive)
[16]
  IC50: > 122 µM (inactive)

## [O-][S+](Cc1cn(Cc2ccccc2)nn1)c1nnc(-c2ccc(Cl)cc2)o1 (centres undefined)
[17]
  AC50: 24.2 µM (active)
[18]
  IC90: 2 µM (active)
[19]
  AC50: 19.6 µM (active)
[20]
  IC90: 2 µM (active)
[21]
  IC90: 125 µM (active)

## COc1cc(C(=O)NC2CC3CCCC(C2)N3CC(=O)Nc2ccc(F)cc2)cc(OC)c1OC (centres undefined)
[22]
  IC50: > 79 µM (inactive)
[23]
  IC50: > 79 µM (inactive)

## Oc1ccc(CCNc2ccnc3ccccc23)cc1O
[24]
  IC50: 3.9 µM (active)

## O=C(Nc1nnc(C2=COCCO2)o1)c1ccc(S(=O)(=O)N2CCCCC2)cc1
[25]
  AC50: > 100 µM (inactive)

## O=C(NCc1cccs1)c1cccc2c(-c3ccc(F)c(F)c3)coc12
[26]
  IC50: > 67.5 µM (inactive)
[27]
  EC50: > 67.5 µM (inactive)

## COc1ccccc1C(=O)NC(=S)Nc1cccnc1Cl
[28]
  EC50: > 67.5 µM (inactive)
cells
  EC50: > 67.5 µM (inactive)

## CN(Cc1ccccc1)c1nnc(-c2ccccc2)o1
[29]
  AC50: > 52 µM (inactive)

## C[C@H](CO)N1C[C@H](C)[C@H](CN(C)C)Oc2ccc(NC(=O)Nc3ccc(F)cc3)cc2CC1=O
[30]
  AC50: 11.5 µM (active)

## COc1ccc(C#Cc2ccc3c(c2)O[C@H](CN(C)C(=O)Nc2cccc(OC)c2)[C@H](C)CN([C@@H](C)CO)S3(=O)=O)cc1
HEK293
  AC50: 26.3 µM (active)
[31]
  AC50: 26.3 µM (active)
[10]
  AC50: 1.69 µM (active)
[11]
  AC50: 1.06 µM (active)
[12]
  AC50: 2.21 µM (active)
[14]
  AC50: 1.46 µM (active)

## CC(=O)/N=c1\c(C#N)cc2c(=O)n3ccccc3nc2n1CCCOC(C)C
[32]
  AC50: > 52 µM (inactive)

## COc1ccc(S(=O)(=O)Nc2cc(Sc3nc[nH]n3)c(O)c3ccccc23)cc1
Caspase-6
  AC50: 0.998 µM (active)
Ephrin type-A receptor 4
  IC50: 6.77 µM (active)
[33]
  IC50: > 64 µM (inactive)
Caspase-9
  AC50: 31.6 µM (active)
Caspase-7
  AC50: 8.7 µM (active)
[34]
  IC50: 7.73 µM (active)
Caspase-8
  AC50: 22 µM (active)

## CO[C@@H](CN(C)S(=O)(=O)c1ccc(C)cc1)[C@H](C)CN([C@H](C)CO)S(=O)(=O)c1cccc(Cl)c1
[35]
  AC50: 4.83 µM (active)
[36]
  AC50: 4.99 µM (active)
